Each structure is given as a SMILES string. The source made the active and inactive calls. How the calls were made is not given here.

The test concerns the target Crimean-Congo hemorrhagic fever virus L protein viral ovarian tumor (vOTU) protease domain. Nature of the test: CCHFV vOTU protease inhibitor potency, dose response, biochemical, fluorescence, Pep-AMC substrate (AID 720578). The settings on record: recombinant CCHFV vOTU, Pep-AMC fluorescence cleavage.
As for `O=C1C(Cl)=C(NCCCO)C(=O)c2ccccc21`, the IC50 (in general, the point on the concentration scale where inhibition reaches its midpoint) was “inactive”.
The value for `COc1ccc(C(C[N+](=O)[O-])c2c(C)[nH]n(-c3ccccc3)c2=O)cc1` (centres undefined) was “inactive”.
The value for `Oc1ccccc1CNc1cccc2cccnc12` was 9.96 µM.
Next, `O=C1C=C(O)c2[nH]c(=O)ccc2C1=O`: 4.26 µM; `O=C(O)c1ccc(NC2=C/C(=N/S(=O)(=O)c3cccs3)c3ccccc3C2=O)cc1`: 0.384 µM; `CC(=O)c1ccc(NC(=S)Nc2cccc3cnccc23)cc1`: 6.84 µM.
On to `COc1ccccc1N=Nc1c(O)[nH]c(=S)[nH]c1=O`, for which the IC50 result was “inactive”.
Take `COc1cc2c(cc1O)[C@@H]1Cc3ccc(OC)c(O)c3CN1CC2`: the IC50 was 7.49 µM.
For the compound `O=S(=O)(c1ccc2nc(-c3ccco3)c(-c3ccco3)nc2c1)N1CCOCC1`, the IC50 result is “inactive”.
The value for `CN1CCC/C1=C/C=C1\SC(=S)NC1=O` was “inactive”.
The value for `CCOc1ccc2noc3c2c1C(=O)c1ccccc1-3` was “inactive”; that for `CCOC(=O)c1c2c(n(Cc3ccccc3)c1C)C(=O)C(=O)c1ccccc1-2` was 2.16 µM; that for `COc1ccccc1NC(=O)COC(=O)c1ccc([N+](=O)[O-])s1` was 9.94 µM.
Next, `COc1ccc(/C=N/NC(=O)c2nn(-c3ccccc3)c(=O)c3c(N)scc23)cc1`: 8.43 µM; `O=C(NC(=S)Nc1ccccc1N1CCCC1)c1ccccc1Br`: “inactive”.
Regarding `COc1cc(NC(=O)COC(=O)c2ccc([N+](=O)[O-])s2)cc(OC)c1OC`, the IC50 was 6.6 µM.
Next, `CC1(C)C=C2C(=NN(c3ccccc3)C(N)=C2C#N)CO1`: 1.83 µM.
In the case of `CCOC(=O)c1c(C)[nH]c2c1-c1ccccc1C(=O)C2=O`, the IC50 was 0.323 µM.
The value for `CC1OC2CC(=O)OC2C2=C1C(=O)c1c(O)cccc1C2=O` (centres undefined) was 3.45 µM; that for `CCc1ccc(S(=O)(=O)Nc2cc(SCC(=O)O)c(O)c3ccccc23)cc1` was 7.64 µM.
The value for `O=C(NC1=CC(=O)c2ccccc2C1=O)c1ccccc1` was 3.85 µM; that for `NC(=S)N=Nc1c(O)cc(O)c2[nH]c(=O)ccc12` was 9.78 µM; that for `NC1=C(Br)C(=O)c2ncccc2C1=O` was 0.435 µM.
Next, `CN(C)CCCNc1cc(O)c2ncccc2c1`: 5.13 µM.
For `O=C(NCCCO)c1ccc2nc(-c3ccco3)c(-c3ccco3)nc2c1`, the IC50 is 9.45 µM.
The value for `CCC(C)n1c(NC(=O)c2ccccc2)c(C#N)c2nc3ccccc3nc21` (centres undefined) was 8.97 µM; that for `O=C1C(=NO)CCc2ccccc21` was 3.36 µM; that for `COC(=O)c1nc(-c2ccc3c(n2)C(=O)C(N)=C(OC)C3=O)c(N)c(-c2ccc(OC)c(OC)c2O)c1C` was 0.931 µM.
In the case of `Cc1cc(=O)c2c(o1)C(=O)c1occc1C2=O`, the IC50 is 6.05 µM.
Next, `NS(=O)(=O)c1ccc(NC2=CC(=O)C(=O)c3ccccc32)cc1`: 4.85 µM; `COc1ccc(NC(=S)Nc2ccc3nsnc3c2)cc1`: 6.79 µM; `O=C1Cc2ccccc2C(=O)N1CCc1ccccc1`: 1.14 µM.
Next, `COc1ccc(CNC(=O)c2c(C)oc3c2C(=O)c2ccccc2C3=O)cc1`: 8.2 µM; `CCN(CC)CCCC(C)n1c2nc(=O)[nH]c(=O)c-2nc2cc(Cl)ccc21` (centres undefined): 2.5 µM; `O=S(=O)(N=C1C=CC(=NS(=O)(=O)c2ccccc2)c2ccccc21)c1ccccc1`: “inactive”.
Next, `O=C(O)c1cccc(NC2=C(n3nnc4ccccc43)C(=O)c3ccccc3C2=O)c1`: 4.76 µM; `O=C(COC(=O)c1ccc([N+](=O)[O-])s1)Nc1ccccc1`: “inactive”; `CCc1cc[n+](C2=C([O-])c3ccccc3C(=O)/C2=N\S(=O)(=O)c2cccs2)cc1`: 4.4 µM.
Consider `O=S(=O)(Nc1cc(Sc2ncn[nH]2)c(O)c2ccccc12)c1ccccc1`, for which the IC50 is 0.708 µM.
The value for `Cc1cc(NC2=CC(=O)C(=O)c3ccccc32)no1` was 5.6 µM; that for `O=C(N/N=C1\C/C(=N\NC(=O)c2ccncc2)c2ccccc21)c1ccncc1` was 0.701 µM.
The value for `O=S(=O)(Nc1c(S(=O)(=O)c2ccccc2)c2nc3ccccc3nc2n1C1CCCCC1)c1ccccc1` was > 115 µM (inactive); that for `COc1cc(NC(C)CCCN)c2ncccc2c1` (centres undefined) was “inactive”.
Take `Cc1c(Cl)cnc(NC(=O)COC(=O)c2ccc([N+](=O)[O-])s2)c1Cl`: the IC50 is 7.08 µM.
Next, `CCOC(=O)c1cc2c(ccn2C)n1Cc1ccccc1C`: > 115 µM (inactive); `CC1COCC(C)N1C1=C(Cl)C(=O)c2ccccc2C1=O` (centres undefined): 5.07 µM; `Cc1ccc(NC2=C(N3CCCCC3)C(=O)c3ccccc3C2=O)cc1`: 4.46 µM.
The value for `O=C1C(=O)c2cccnc2-c2ncccc21` was 5.38 µM; that for `O=C1NNC(c2ccccc2)=N/C1=C\c1ccccc1Cl` was “inactive”; that for `CCOC(=O)C1CCN(C(=O)c2c(C)oc3c2C(=O)c2ccccc2C3=O)CC1` was “inactive”.
The value for `O=C1C=C(N2CC2)c2ccccc2C1=O` was 2.73 µM; that for `Nc1ccc(N2CCCCC2)c2nonc12` was “inactive”; that for `Cn1nc(-c2ccccn2)nc2c(=O)n(C)c(=O)nc1-2` was 0.366 µM.
With `C[n+]1c(-c2ccccc2)cc2c(=Cc3ccccc3)c3ccccc3n21`, the IC50 was 4.95 µM.
Next, `COc1ccc(N2C(=O)[C@@H]3[C@H](C2=O)[C@H]2c4ccccc4C=CN2[C@@H]3C(C)=O)cc1`: “inactive”.
Next, `Clc1ccc(C2=CSC3=Nc4cccc5cccc(c45)N23)cc1`: “inactive”; `O=C(O)CSc1cc(NS(=O)(=O)c2ccc(Cl)cc2)c2ccccc2c1O`: 5 µM; `COc1cc2c(cc1OC)-c1c(OC)c(OC)cc3c1C(C2)N(C)CC3` (centres undefined): > 115 µM (inactive).
Next, `COc1ccccc1Nc1cc2cc(Br)ccc2c(=O)[nH]1`: 1.05 µM.
With `CN1CCN(C2=C(Cl)C(=O)c3ccccc3C2=O)CC1`, the IC50 is 0.276 µM.
Next, `O=C(O)CSc1cc(NS(=O)(=O)c2cccc([N+](=O)[O-])c2)c2ccccc2c1O`: 2.44 µM; `CCC(COC)Oc1cc(NCc2ccccc2)c2ncn(C(C)C)c2c1` (centres undefined): 5.43 µM; `O=C(NC1=C(NC2CCS(=O)(=O)C2)C(=O)c2ccccc2C1=O)c1ccccc1` (centres undefined): 3.93 µM.
The value for `O=C1C=C(NCc2ccccc2)c2ccccc2C1=O` was 6.23 µM.
The value for `O=C1C(Nc2cccc(O)c2)=C(N2CCCCC2)C(=O)c2ccccc21` was 3.6 µM.
Take `Oc1c(N=Nc2nn[nH]n2)ccc2ccccc12`: the IC50 is 5.11 µM.
The value for `NC1=C(Cl)C(=O)c2ccc(S(N)(=O)=O)cc2C1=O` was 0.127 µM.
The value for `CCCCn1c(NS(=O)(=O)c2ccccc2)c(S(=O)(=O)c2ccc(C)cc2)c2nc3ccccc3nc21` was > 115 µM (inactive); that for `CCc1ccc(S(=O)(=O)/N=C2\C=C(Nc3cccc(C(=O)O)c3)C(=O)c3ccccc32)cc1` was 0.833 µM; that for `O=C(NC(=S)Nc1ccccc1N1CCCC1)c1ccc(F)cc1` was “inactive”.
As for `O=[N+]([O-])c1cc(O)c2ncccc2c1`, the IC50 result was “inactive”.
Next, `S=C(Nc1ccc2nsnc2c1)N1CCCCCC1`: “inactive”; `Cc1oc2c(c1C(=O)O)C(=O)c1ccccc1C2=O`: 9.12 µM.
Next, `C[n+]1c(-c2ccccc2)cc2c(=Cc3ccc([N+](=O)[O-])cc3)c3ccccc3n21`: “inactive”.
For the compound `O=C(/C=C/c1ccc(O)cc1)c1ccc(NC2=C(N3CCCCC3)C(=O)c3ccccc3C2=O)cc1`, the IC50 was 3.35 µM.
Next, `CN(C)c1ccc(C=c2c3cc(O)ccc3n3c2cc(-c2ccccc2)[n+]3C)cc1`: “inactive”; `COc1cc(NCCCCCCN)c2ncccc2c1OC`: 3.65 µM; `Cn1c2ccccc2c2cc(/C=N/NC(=O)c3cc(O)ccc3O)ccc21`: 9.12 µM.
The value for `S=C(Nc1ccc(Cl)cc1)Nc1cccc2cnccc12` was 6.44 µM; that for `O=C1Cc2ccccc2C(=O)N1Cc1ccccc1` was 1.28 µM.
Next, `O=C(O)c1cccc(NC2=C(N3CCOCC3)C(=O)c3ccccc3C2=O)c1`: “inactive”; `Cc1coc2c(O)cc3c(c12)OC1(N2CCCCC2)C(=O)NCCCC31` (centres undefined): “inactive”; `Cc1ccc(NC2=C(N3CCOCC3)C(=O)c3ccccc3C2=O)cc1`: 4.31 µM.
Turning to `Nc1cc2c(cc1Br)[nH]c(=O)c1ccccc12`, the IC50 is 3.2 µM.
Take `O=C(/C=C/c1ccc([N+](=O)[O-])s1)N1CCCCC1`: the IC50 result was “inactive”.
Next, `CN(C)S(=O)(=O)c1cccc(NC(=S)Nc2cccc3cnccc23)c1`: “inactive”; `CC(=O)Nc1ccc(S(=O)(=O)NC2=C(N3CCN(c4ccc(F)cc4)CC3)C(=O)c3ccccc3C2=O)cc1`: “inactive”; `COc1cc(NCCCC(C)N)c2ncccc2c1` (centres undefined): 2.52 µM.
The value for `Cc1cccc(NC(=O)c2sc3nc4c(c(-c5cccs5)c3c2N)CN(C)CC4)c1` was “inactive”; that for `CC(C)=CCC1=C(OCC(=O)O)C(=O)c2ccccc2C1=O` was 6.79 µM; that for `Cc1ccc(S(=O)(=O)/N=C2\C=C(Nc3cccc(C(=O)O)c3)C(=O)c3ccccc32)c(C)c1` was 0.973 µM.
The value for `O=C1C(Nc2ccccc2)=C(N2CCCCC2)C(=O)c2ccccc21` was 4.54 µM; that for `Cc1c(C=O)c(Cl)n(C)c(=O)c1C#N` was “inactive”; that for `NS(=O)(=O)c1ccc(NC(=O)COC(=O)c2ccc([N+](=O)[O-])s2)cc1` was 8.31 µM.
For the compound `CN(C)c1ccc2nc3ccc(=O)cc-3sc2c1`, the IC50 entry was “inactive”.
The value for `O=C(O)CSc1cc(NS(=O)(=O)c2ccc(Br)cc2)c2ccccc2c1O` was 4.45 µM.
The value for `CC(=O)N(/N=C1\Sc2ccccc2C1=O)c1ccccc1C` was “inactive”.
For the compound `C=CCN1C(=O)/C(=C/c2ccc(OC(C)=O)c(OCC)c2[N+](=O)[O-])SC1=S`, the IC50 is 7.63 µM.
The value for `O=C1C=C(Nc2ccccc2)c2ccccc2C1=O` was 6.87 µM.

(Values after PubChem BioAssay AID720578 (The Scripps Research Institute Molecular Screening Center, 2013).)
